# Test results reported in publication PMC12028158, “Synthesis and In Vitro Evaluation of the Anticancer Effect of Novel Phosphonium Vindoline Derivatives” (International Journal of Molecular Sciences, 2025).
# Key:
# Type in all cases: cell-based
# HCC-2998 = test: NCI60 five-dose screen; conditions: Homo sapiens; HCC-2998, Colon Cancer; read-out: GI50
# CAKI-1 = test: NCI60 one-dose screen; conditions: Homo sapiens; CAKI-1, 10 μM, one-dose; read-out: Growth percent
# UO-31 = test: NCI60 one-dose screen; conditions: Homo sapiens; UO-31, 10 μM, one-dose; read-out: Growth percent
# OVCAR-3 [1] = test: NCI60 one-dose screen; conditions: Homo sapiens; OVCAR-3, 10 μM, one-dose; read-out: Growth percent
# RXF 393 [2] = test: NCI60 one-dose screen; conditions: Homo sapiens; RXF 393, 10 μM, one-dose; read-out: Growth percent
# SK-MEL-28 [3] = test: NCI60 one-dose screen; conditions: Homo sapiens; SK-MEL-28, 10 μM, one-dose; read-out: Growth percent
# NCI-H23 = test: NCI60 one-dose screen; conditions: Homo sapiens; NCI-H23, 10 μM, one-dose; read-out: Growth percent
# LOX IMVI = test: NCI60 one-dose screen; conditions: Homo sapiens, 10 μM, one-dose, read-out: Growth percent
# SNB-75 = test: NCI60 one-dose screen; conditions: Homo sapiens; SNB-75, 10 μM, one-dose; read-out: Growth percent
# MALME-3M [4] = test: NCI60 one-dose screen; conditions: Homo sapiens; MALME-3M, 10 μM, one-dose; read-out: Growth percent
# SK-MEL-2 = test: NCI60 one-dose screen; conditions: Homo sapiens; SK-MEL-2, 10 μM, one-dose; read-out: Growth percent
# OVCAR-8 = test: NCI60 one-dose screen; conditions: Homo sapiens; OVCAR-8, 10 μM, one-dose; read-out: Growth percent
# SF-539 = test: NCI60 five-dose screen; conditions: Homo sapiens; SF-539, CNS Cancer; read-out: GI50
# OVCAR-3 [5] = test: NCI60 five-dose screen; conditions: Homo sapiens; OVCAR-3, Ovarian Cancer; read-out: GI50
# UACC-62 = test: NCI60 one-dose screen; conditions: Homo sapiens; UACC-62, 10 μM, one-dose; read-out: Growth percent
# A549/ATCC = test: NCI60 one-dose screen; conditions: Homo sapiens; A549/ATCC, 10 μM, one-dose; read-out: Growth percent
# HT29 = test: NCI60 one-dose screen; conditions: Homo sapiens, HT-29; HT29, 10 μM, one-dose; read-out: Growth percent
# K-562 = test: NCI60 five-dose screen; conditions: Homo sapiens, K562; K-562, Leukemia; read-out: GI50
# CNS Cancer panel = test: NCI60 five-dose screen, panel mean; conditions: Homo sapiens; mean over CNS Cancer panel; read-out: GI50 Mean
# HOP-62 = test: NCI60 one-dose screen; conditions: Homo sapiens; HOP-62, 10 μM, one-dose; read-out: Growth percent
# CCRF-CEM = test: NCI60 one-dose screen; conditions: Homo sapiens, 10 μM, one-dose, read-out: Growth percent
# RXF 393 [6] = test: NCI60 five-dose screen; conditions: Homo sapiens; RXF 393, Renal Cancer; read-out: GI50
# HS 578T = test: NCI60 five-dose screen; conditions: Homo sapiens; HS 578T, Breast Cancer; read-out: GI50
# Breast Cancer panel = test: NCI60 five-dose screen, panel mean; conditions: Homo sapiens; mean over Breast Cancer panel; read-out: GI50 Mean
# SF-268 = test: NCI60 five-dose screen; conditions: Homo sapiens; SF-268, CNS Cancer; read-out: GI50
# BT-549 [7] = test: NCI60 five-dose screen; conditions: Homo sapiens; BT-549, Breast Cancer; read-out: GI50
# HCT-15 [8] = test: NCI60 one-dose screen; conditions: Homo sapiens; HCT-15, 10 μM, one-dose; read-out: Growth percent
# HL-60(TB) [9] = test: NCI60 one-dose screen; conditions: Homo sapiens; HL-60(TB), 10 μM, one-dose; read-out: Growth percent
# SK-MEL-28 [10] = test: NCI60 five-dose screen; conditions: Homo sapiens; SK-MEL-28, Melanoma; read-out: GI50
# MALME-3M [11] = test: NCI60 five-dose screen; conditions: Homo sapiens; MALME-3M, Melanoma; read-out: GI50
# HL-60(TB) [12] = test: NCI60 five-dose screen; conditions: Homo sapiens, HL-60, HL-60(TB), Leukemia; read-out: GI50
# BT-549 [13] = test: NCI60 one-dose screen; conditions: Homo sapiens; BT-549, 10 μM, one-dose; read-out: Growth percent
# NCI/ADR-RES = test: NCI60 five-dose screen; conditions: Homo sapiens, Ovarian Cancer, read-out: GI50
# Ovarian Cancer panel = test: NCI60 five-dose screen, panel mean; conditions: Homo sapiens; mean over Ovarian Cancer panel; read-out: GI50 Mean
# Leukemia panel = test: NCI60 five-dose screen, panel mean; conditions: Homo sapiens; mean over Leukemia panel; read-out: GI50 Mean
# RPMI-8226 = test: NCI60 five-dose screen; conditions: Homo sapiens; RPMI-8226, Leukemia; read-out: GI50
# Renal Cancer panel = test: NCI60 five-dose screen, panel mean; conditions: Homo sapiens; mean over Renal Cancer panel; read-out: GI50 Mean
# OVCAR-4 = test: NCI60 one-dose screen; conditions: Homo sapiens; OVCAR-4, 10 μM, one-dose; read-out: Growth percent
# SK-OV-3 = test: NCI60 five-dose screen; conditions: Homo sapiens; SK-OV-3, Ovarian Cancer; read-out: GI50
# NCI-H226 = test: NCI60 one-dose screen; conditions: Homo sapiens; NCI-H226, 10 μM, one-dose; read-out: Growth percent
# COLO 205 = test: NCI60 five-dose screen; conditions: Homo sapiens, COLO 205, COLO 205, Colon Cancer; read-out: GI50
# NCI-H322M [14] = test: NCI60 five-dose screen; conditions: Homo sapiens, Non-small Cell Lung Cancer, read-out: GI50
# SNB-19 = test: NCI60 one-dose screen; conditions: Homo sapiens; SNB-19, 10 μM, one-dose; read-out: Growth percent
# HCT-116 = test: NCI60 one-dose screen; conditions: Homo sapiens; HCT-116, 10 μM, one-dose; read-out: Growth percent
# NCI-H322M [15] = test: NCI60 one-dose screen; conditions: Homo sapiens, 10 μM, one-dose, read-out: Growth percent
# HCT-15 [16] = test: NCI60 five-dose screen; conditions: Homo sapiens; HCT-15, Colon Cancer; read-out: GI50
smiles,measurement,setting,value
CC[C@]12C=CCN3CC[C@@]4(c5ccc(OC)cc5N(C)[C@H]4[C@@](O)(C(=O)OC)[C@@H]1OC(=O)CCCC[P+](c1ccc(F)cc1)(c1ccc(F)cc1)c1ccc(F)cc1)[C@@H]32 [10c],GI50,HCC-2998,12.5 µM
same,activity at 10 µM,CAKI-1,73.2%
same,activity at 10 µM,UO-31,85.9%
same,activity at 10 µM,OVCAR-3 [1],12.6%
same,activity at 10 µM,RXF 393 [2],-9.93%
same,activity at 10 µM,SK-MEL-28 [3],-54.9%
same,activity at 10 µM,NCI-H23,23.6%
same,activity at 10 µM,LOX IMVI,25%
same,activity at 10 µM,SNB-75,-5.3%
same,activity at 10 µM,MALME-3M [4],-55.9%
same,activity at 10 µM,SK-MEL-2,-54%
same,activity at 10 µM,OVCAR-8,20%
same,GI50,SF-539,21.9 µM
same,GI50,OVCAR-3 [5],9.3 µM
same,activity at 10 µM,UACC-62,-69.6%
same,activity at 10 µM,A549/ATCC,37.5%
same,activity at 10 µM,HT29,15.9%
same,GI50,K-562,11.3 µM
same,GI50,CNS Cancer panel,18.8 µM
same,activity at 10 µM,HOP-62,51%
same,activity at 10 µM,CCRF-CEM,19.9%
same,GI50,RXF 393 [6],13.3 µM
same,GI50,HS 578T,16.9 µM
same,GI50,Breast Cancer panel,11.1 µM
same,GI50,SF-268,17.6 µM
same,GI50,BT-549 [7],12.9 µM
same,activity at 10 µM,HCT-15 [8],102%
same,activity at 10 µM,HL-60(TB) [9],-32.2%
same,GI50,SK-MEL-28 [10],8.28 µM
same,GI50,MALME-3M [11],13.5 µM
same,GI50,HL-60(TB) [12],2.11 µM
same,activity at 10 µM,BT-549 [13],-23.5%
same,GI50,NCI/ADR-RES,> 100 µM
same,GI50,Ovarian Cancer panel,32.5 µM
same,GI50,Leukemia panel,9.86 µM
same,GI50,RPMI-8226,2.97 µM
same,GI50,Renal Cancer panel,56.7 µM
same,activity at 10 µM,OVCAR-4,33.1%
same,GI50,SK-OV-3,23.5 µM
same,activity at 10 µM,NCI-H226,38%
same,GI50,COLO 205,4.63 µM
same,GI50,NCI-H322M [14],50 µM
same,activity at 10 µM,SNB-19,6.61%
same,activity at 10 µM,HCT-116,23.4%
same,activity at 10 µM,NCI-H322M [15],52.9%
same,GI50,HCT-15 [16],> 100 µM
